Assay results: patent EP0726764B1, “MULTILAMELLAR LIPOSOMAL ARACHIDONIC ACID METABOLITE FORMULATIONS” (THE LIPOSOME COMPANY, INC., priority 1993, dated 1995)
Where two headings read alike, the source gives them in different places.

How the values were obtained:
infarct size = conditions: continuous arterial infusion over a six-hour period, free (non-liposomal); cited from earlier work
[1] = cited from earlier work
LPS-induced death = assay: Rat endotoxemia model, LPS-induced mortality; format: in vivo, Male Sprague-Dawley rats; conditions: 50 µg/kg LPS i.v. at time 0, PGE1 40 µg/kg i.v. simultaneously
[2] = system: leukocyte extravasation from the peripheral vasculature to sites of inflammation; assay: Rat subcutaneous air pouch, fMLP-induced inflammation; format: in vivo, Male Sprague-Dawley rats; conditions: visual examination of post-stimulation air pouch lining
Description: • Figure 1. Release of PGE1 from MLVs. The release of prostaglandin E1 (PGE1) from multilamellar vesicles (MLVs) comprising egg phosphatidylcholine (EPC) or dipalmitoyl phosphatidylcholine (DPPC) formed in 50 mM citrate buffer, pH 4.5, and then incubated at room temperature in pH 7.1 buffer for the indicated amount of time, is set forth. X-axis: time (minutes); y-axis: percent PGE1 retained in pelleted liposomes. • Figure 2. Rat Air Pouch Studies. Liposomal PGE1 formulations inhibit the extravasation of leukocytes from the vasculature to the rat air pouch. Subcutaneous air pouches were formed in male Sprague-Dawley rats. fMLP (2.15 µg) was injected directly into the air pouch at time 0, and free or liposomal PGE1 was simultaneously injected intravenously. After six hours, the air pouch exudate was collected and the air pouch total cell population determined. For each treatment group, n=4. […] After six hours, the air pouch exudate was collected, and the air pouch total cell population determined. […] After six hours, the air pouch exudate was collected, and the air pouch total cell population determined. […] After six and 24 hours, the air pouch exudates were collected, and the air pouch total cell populations were determined. […]

restenosis = conditions: intracoronary infusion over a 24-hour period; cited from earlier work
adjuvant arthritis = assay: Rat adjuvant arthritis (complete Freund's adjuvant); format: in vivo, Male Lewis rats
[3] = system: acute myocardial infarction; conditions: slow intracoronary infusion together with intracoronary streptokinase; cited from earlier work

SMILES	reducing the infarct size (infarct size)	bioavailability ([1]; free stable prostaglandin analog) [h]	LPS induced mortality (LPS-induced death)	vascular reactivity and number of leukocytes invading the pouch lining [2]	reduction of the rate of restenosis six months after angioplasty versus untreated control group (restenosis) [%]	inhibition of arthritis progression, treatment begun 10 days post-adjuvant (adjuvant arthritis; 10 µg/kg beginning at day 10, every second day)	progression of adjuvant arthritis (weight gain, joint edema) (adjuvant arthritis; 10 µg/kg, injections every second day)	subjective scoring of general health and mobility (adjuvant arthritis; 10 µg/kg, scored at day 14)	bioavailability ([1]; free PGE1) [h]	clinical results versus intracoronary streptokinase alone [3]
CCCCC[C@H](O)/C=C/[C@@H]1[C@H]2C/C(=C/CCCC(=O)O)O[C@H]2C[C@H]1O [PGI2]	scant effect									
CCCCCC(C)(O)/C=C/[C@H]1[C@H](O)CC(=O)[C@@H]1CCCCCCC(=O)O (some centres unmarked) [15-methyl-PGE1]		≥ 8								
CCCCC[C@H](O)/C=C/[C@H]1[C@H](O)CC(=O)[C@@H]1CCCCCCC(=O)O [free PGE1, prostaglandin E1]	scant effect		increased both the rate and magnitude of LPS induced mortality	reduction in vascular reactivity and a concurrent reduction in the number of leukocytes invading the pouch lining	~50	still receive protection horn disease progression, although the inhibition of arthritis progression was not as profound	attenuated the progression of adjuvant arthritis	maintenance of general health and mobility	< 0.25	positive clinical results
